Non-standard residues stand in square brackets, D forms with d. Residues, ends and D or L forms follow the SMILES beside them. ξ: configuration not given here. ξAla(tetrazol-5-yl) = NC(Cc1nnn[nH]1)C(=O)O
Tests used:
[1] = Stability test 1: survival rate of peptide in phosphate buffer (pH 7.0) after storage, HPLC; format: physicochemical; conditions: 100 μM peptide, 0.1% phosphate buffer pH 7.0, 40° C., 4 weeks (Table 4)
Procedure, shortened: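 Peptide solutions at 100 μM in phosphate buffer were stored at 40° C. for 1 week to 2 months depending on peptide. Remaining peptide was measured by reverse-phase HPLC peak area against an unstored standard, with survival rate also corrected for water loss through the container from weighing before and after storage.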

[2] = as above; format: physicochemical; conditions: 100 μM peptide, 0.1% phosphate buffer pH 7.0, head prints 80° C., 8 weeks (Table 4)
VPAC1 receptor = biological target: T1, VPAC1 receptor (Homo sapiens, UniProt P32241); experiment: cAMP assay in CHO-K1 cells, VPAC1 receptor high-expressing cell line; format: cell-based; conditions: 30 minutes incubation
T1 construct: host or cells: CHO-K1
T1 sequence (P32241 31-457): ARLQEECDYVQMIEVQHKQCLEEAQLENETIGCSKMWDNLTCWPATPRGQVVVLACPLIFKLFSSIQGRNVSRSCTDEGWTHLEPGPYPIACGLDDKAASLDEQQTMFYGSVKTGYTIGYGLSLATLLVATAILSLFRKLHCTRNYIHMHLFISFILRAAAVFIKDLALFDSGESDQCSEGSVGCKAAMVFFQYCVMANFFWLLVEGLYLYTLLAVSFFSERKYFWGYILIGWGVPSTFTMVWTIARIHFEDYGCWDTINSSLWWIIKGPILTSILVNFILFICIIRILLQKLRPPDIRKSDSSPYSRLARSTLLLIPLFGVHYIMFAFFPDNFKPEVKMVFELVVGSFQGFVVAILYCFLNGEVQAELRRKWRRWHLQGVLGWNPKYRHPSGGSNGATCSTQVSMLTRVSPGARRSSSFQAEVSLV
Method: The cells were cultured for 18 to 24 hours at 37° C. in a 5% CO2 incubator, adhering the cells to the plate. […] A 5-fold dilution series was then prepared with the same Cell assay buffer and used in an assay. The cAMP assay was carried out using a Hit Hunter cAMP Assay for Biologics kit (product of DiscoveRx, Cat. No. 90-0075LM25), according to the included kit instructions. […] Next, the culture medium was removed from the CHO-K1 cell culture plate, washing was performed with PBS, and the peptide-cAMP antibody liquid mixtures were added to the cells and incubated for 30 minutes under a 5% CO2 atmosphere at 37° C. A working detection solution was then added and the culture plate was shielded from light with aluminum foil and incubated at 25° C. for 1 hour. After incubation, Solution A was added and the culture plate was shielded from light with aluminum foil and then incubated at 25° C. for 3 hours. […] The obtained value for the Relative Luminescence Unit (RLU) was analyzed with GraphPad Prism Ver 6.05 (product of Graph Pad) and the EC50 value was calculated for each peptide.

PAC1 receptor (PAC1R) = biological target: T2, PAC1 receptor (PAC1R) (Homo sapiens, UniProt P41586); conditions: background statement; cited from earlier work
T2 sequence (P41586 21-468): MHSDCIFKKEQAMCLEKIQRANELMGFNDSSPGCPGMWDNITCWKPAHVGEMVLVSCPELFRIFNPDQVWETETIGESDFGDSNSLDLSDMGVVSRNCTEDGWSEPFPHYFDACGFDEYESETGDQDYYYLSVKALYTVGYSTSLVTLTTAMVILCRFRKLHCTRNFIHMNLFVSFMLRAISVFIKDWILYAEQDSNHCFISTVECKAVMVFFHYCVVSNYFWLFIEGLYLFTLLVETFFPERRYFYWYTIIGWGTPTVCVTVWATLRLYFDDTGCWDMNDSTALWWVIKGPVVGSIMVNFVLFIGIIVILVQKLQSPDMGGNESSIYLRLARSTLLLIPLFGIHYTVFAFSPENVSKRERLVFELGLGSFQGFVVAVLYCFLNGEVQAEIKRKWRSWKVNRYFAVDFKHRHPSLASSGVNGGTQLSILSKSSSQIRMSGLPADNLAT

Compound	survival rate after correction for water, 40° C. 4 week [1]	survival rate after correction for water, 80° C. 8 week [2]	EC50 (VPAC1 receptor)	affinity of PAC1R for PACAP relative to affinity of PAC1R for VIP (PAC1 receptor (PAC1R))
CC[C@H](C)[C@H](NC(=O)CNC(=O)C(Cc1nnn[nH]1)NC(=O)[C@H](CO)NC(=O)[C@@H](N)Cc1c[nH]cn1)C(=O)N[C@@H](Cc1ccccc1)C(=O)N[C@@H](C)C(=O)NC(Cc1nnn[nH]1)C(=O)N[C@@H](C)C(=O)N[C@@H](Cc1ccc(O)cc1)C(=O)N[C@@H](C)C(=O)N[C@@H](CCCNC(=N)N)C(=O)N[C@@H](Cc1ccc(O)cc1)C(=O)N[C@@H](CCCNC(=N)N)C(=O)N[C@@H](CCCCN)C(=O)N[C@@H](CCC(N)=O)C(=O)N[C@@H](CCSC)C(=O)N[C@@H](C)C(=O)N[C@H](C(=O)N[C@@H](CCCCN)C(=O)N[C@@H](CCCCN)C(=O)N[C@@H](Cc1ccc(O)cc1)C(=O)N[C@@H](CC(C)C)C(=O)N[C@@H](C)C(=O)N[C@@H](C)C(=O)N[C@H](C(=O)N[C@@H](CC(C)C)C(N)=O)C(C)C)C(C)C (stereo partly shown) [Peptide 3, HSTzGI FATzAY ARYRK QMAVK KYLAA VL] (H-HS[ξAla(tetrazol-5-yl)]GIFA[ξAla(tetrazol-5-yl)]AYARYRKQMAVKKYLAAVL-NH2)	92.9%	85.4%	0.111 nM	
Pituitary adenylate cyclase-activating polypeptide [PACAP]				more than 1000 times

Reference: patent US20250263459A1, “STABILIZED PACAP PEPTIDE” (SENJU PHARMACEUTICAL CO., LTD., priority 2019, published 2025)
